Assay results as given in patent US11911386B2, “Methods of treating B-cell proliferative disorder” (BeiGene Switzerland GmbH, priority 2022, dated 2024).
Where two headings read alike, the source gives them in different places.

Test: Phase 1 DDI study: single-dose zanubrutinib PK alone and with steady-state rifabutin (NCT04470908)
Assay type: in vivo, human
Settings: for half-life: arithmetic mean (SD)
Source text: This study was designed, conducted, and monitored according to sponsor procedures, and complied with the ethical principles of Good Clinical Practice, International Council for Harmonisation of Technical Requirements for Pharmaceuticals for Human Use, the Declaration of Helsinki, and local regulatory requirements. All volunteers provided written, informed consent before study entry. Midlands Independent Review Board (MLIRB (now WCG IRB), Overland Park, Kansas) reviewed and approved the protocol at the respective study center.
Volunteers were screened for eligibility during the screening period (from day −28 through day −2). Those who met all the inclusion criteria and none of the exclusion criteria were admitted into the clinical research unit (CRU) on day −1 and confined to the CRU until discharge on day 13. […] Volunteers were discharged on day 13 after satisfactory completion of study-related procedures.
A single dose of rifabutin (300 mg) was given orally as 2×150 mg capsules with food on days 3-10 and in the fasted state on day 11.
Noncompartmental analysis was conducted using Phoenix® WinNonlin™ version 8.1 (Certara USA, Inc., Princeton, New Jersey, USA).
Protein precipitation was utilized to extract the analyte and internal standard from human plasma containing dipotassium ethylenediaminetetraacetic acid (K2EDTA) as an anticoagulant.
The geometric least squares mean (GLSM) and their ratios were obtained by taking the exponential of the corresponding estimates of LSM and their differences on the natural logarithm scale, where ratio=test/reference. Within-subject CV was calculated as 100×square root[exp(mean square error from the analysis model)−1].

[1] = 320 mg zanubrutinib + 300 mg rifabutin (test)
[2] = 320 mg zanubrutinib + 300 mg rifabutin, median (min-max)

## C=CC(=O)N1CCC([C@@H]2CCNc3c(C(N)=O)c(-c4ccc(Oc5ccccc5)cc4)nn32)CC1 [zanubrutinib, (S)-7-(1-acryloylpiperidin-4-yl)-2-(4-phenoxyphenyl)-4,5,6,7-tetrahydropyrazolo[1,5-a]pyrimidine-3-carboxamide]
320 mg zanubrutinib (reference)
  AUC0-t GLSM: 2700 ng·h/mL
[1]
  AUC0-t GLSM: 1530 ng·h/mL
  Cmax GLSM: 253 ng/mL
[2]
  Tlast: 36.0 (24.0-36.0) [13] h
  Tmax: 2.0 h
320 mg zanubrutinib alone, median (min-max)
  Tlast: 36.0 (24.0-36.0) [13] h
human, plasma, oral, 320 mg
  AUC(0-t): 2700 ng·h/mL
  Cmax: 489 ng/mL
  Vd/F: 1080 L
human, plasma, oral, 320 mg zanubrutinib + 300 mg rifabutin (test), read-out: AUC0-∞ GLSM
  AUC(0-inf): 1560 ng·h/mL
human, plasma, oral, 320 mg zanubrutinib + 300 mg rifabutin
  half-life: 7 h
human, plasma, oral, 320 mg zanubrutinib + 300 mg rifabutin, geometric mean (CV), read-out: AUC0-∞
  AUC(0-inf): 1590 ng·h/mL
human, plasma, oral, 320 mg, 320 mg zanubrutinib (reference), read-out: AUC0-∞ GLSM
  AUC(0-inf): 2780 ng·h/mL
human, plasma, oral, 320 mg, 320 mg zanubrutinib alone
  half-life: 7.2 h
human, plasma, oral, 320 mg, 320 mg zanubrutinib alone, geometric mean (CV), read-out: AUC0-∞
  AUC(0-inf): 2780 ng·h/mL
human, plasma, oral, 320 mg, read-out: Tmax
  Tmax: 1.5 h
In vivo
  AUC0-t within-subject CV: 10.7%
  AUC0-∞ within-subject CV: 7.0%
  Cmax within-subject CV: 23.2%
With moderate CYP3A inducer, e.g. rifabutin
  Reduction in zanubrutinib exposure: approximately 2 fold
With vs without rifabutin
  GMR (exposure): 57%
